Laboratory results from article PMC12931196, “Vm–MSI: a Vancomycin–Antimicrobial Peptide Conjugate Combating Resistant Bacteria and Broadening the Antimicrobial Spectrum” (Advanced Science, 2025).
Like-named read-outs stand apart in the source and are kept apart here. Ends that are not written are not given here.

Legend:
B. cereus CMCC63301 = experiment: MIC, 2 fold broth microdilution; type: cell-based; conditions: MH broth, 37 °C, 18 h, OD600
Method: (§1) The 2 fold broth microdilution method was performed following previously established protocols.^[ [65], [66] ^] A total of 29 strains of human pathogenic microorganisms (11 Gram‐positive and 18 Gram‐negative) were included in the assay. Standard strains were maintained in our laboratory, and clinical isolates were obtained from the Fourth Affiliated Hospital of Soochow University. […] Gradient dilutions of the drugs (vancomycin, AMPs, and vancomycin‐AMP conjugates) were prepared in 96‐well plates, with 50 µL of each drug solution added per well. For the vancomycin and AMP mixture, 25 µL of vancomycin was combined with 25 µL of AMP at the corresponding monomer gradient concentration, resulting in a total volume of 50 µL. […] Following incubation, bacterial growth was assessed by measuring absorbance at 600 nm. The MIC was defined as the lowest concentration at which no bacterial growth was detected.

P. aeruginosa 52097 = experiment: MIC, 2 fold broth microdilution; type: cell-based; conditions: MH broth, 37 °C, 18 h, OD600
Method: as §1

P. aeruginosa 60357 = experiment: MIC, 2 fold broth microdilution; type: cell-based; conditions: MH broth, 37 °C, 18 h, OD600
Method: as §1

P. aeruginosa CMCC10104 = experiment: MIC, 2 fold broth microdilution; type: cell-based; conditions: MH broth, 37 °C, 18 h, OD600
Method: as §1

S. flexneri ATCC12022 = experiment: MIC, 2 fold broth microdilution; type: cell-based; conditions: MH broth, 37 °C, 18 h, OD600
Method: as §1

S. flexneri CMCC51571 = experiment: MIC, 2 fold broth microdilution; type: cell-based; conditions: MH broth, 37 °C, 18 h, OD600
Method: as §1

S. typhimurium CICC21483 = experiment: MIC, 2 fold broth microdilution; type: cell-based; conditions: MH broth, 37 °C, 18 h, OD600
Method: as §1

[1] = system: V. parahemolyticus ATCC17802; experiment: MIC, 2 fold broth microdilution; type: cell-based; conditions: MH broth, 37 °C, 18 h, OD600
Method: as §1

[2] = system: 29 bacterial strains (11 Gram‐positive, 18 Gram‐negative); experiment: GM of the MICs across the 29 bacterial strains; type: cell-based; conditions: MIC values exceeding 100 µg mL^−1 defaulted to 100 µg mL^−1
Method: as §1

[3] = system: S. aureus CMCC26003 biofilm; experiment: Biofilm inhibition, crystal violet; type: cell-based; conditions: 4 µM, 48 h, OD595
Method: (§2) The mixture was incubated in a 96‐well plate for 48 h. Subsequent steps, including washing, fixation, staining, and OD measurement, were performed as described in the biofilm eradication assay.

[4] = system: E. coli ATCC25922 biofilm; type: cell-based; conditions: 4 µM, 48 h, crystal violet, OD595
Method: as §2

[5] = system: MDR P. aeruginosa 5 biofilm; type: cell-based; conditions: 4 µM, 48 h, crystal violet, OD595
Method: as §2

VRSA 52 biofilm = type: cell-based, S. aureus; conditions: 4 µM, 48 h, crystal violet, OD595
Method: as §2

human erythrocytes = experiment: Hemolytic activity assay; type: cell-based; conditions: 32 µM; human blood cells, 37 °C, 30 min, A540, 1% Triton X‐100 positive control
E. coli ATCC25922 [6] = experiment: Live/dead bacteria staining (PI/SYTO9, CLSM); type: cell-based; conditions: 4 µM, 1 h
C. perfringens ATCC13124 = conditions: MH broth, 37 °C, 18 h, OD600
MDR A. baumannii 1 = conditions: MH broth, 37 °C, 18 h, OD600
MDR K. pneumoniae 2 = conditions: MH broth, 37 °C, 18 h, OD600
MDR K. pneumoniae 3 = conditions: MH broth, 37 °C, 18 h, OD600
MDR K. pneumoniae 4 = conditions: MH broth, 37 °C, 18 h, OD600
VRSA 52 biofilms = conditions: 8 µM, 4 h, SYTO9/PI CLSM
[7] = system: E. coli ATCC25922 biofilms; conditions: 8 µM, 4 h, SYTO9/PI CLSM
E. coli ATCC25922 [8] = experiment: Antimicrobial resistance development assay; type: cell-based; conditions: E. coli ATCC25922 cultured at sub‐MIC
S. aureus ATCC29213 = conditions: ATCC29213, 18 h
VRSA 11 = conditions: 11, 18 h
E. faecalis ATCC29212 = conditions: ATCC29212, 18 h
K. pneumoniae 9883 = conditions: 9883, 18 h
13 bacterial strains = experiment: GM of MIC from tested bacterial strains (Table S2); type: cell-based; conditions: 13 strains of Table S2
Method: as §1

S. aureus CMCC26003 = conditions: CMCC26003, 18 h
MRSA ATCC43300 = conditions: ATCC43300, 18 h
S. aureus 15772 = conditions: 15772, 18 h
S. aureus 15192 = conditions: 15192, 18 h
VRSA 52 = conditions: VRSA 52; MH broth, 37 °C, 18 h, OD600
E. coli ATCC25922 [9] = conditions: ATCC25922, 18 h
A. baumannii ATCC19606 = conditions: ATCC19606, 18 h
P. aeruginosa ATCC27853 = conditions: ATCC27853, 18 h
S. typhimurium ATCC14028 = conditions: ATCC14028, 18 h

Row | Compound | MIC (B. cereus CMCC63301) | MIC (P. aeruginosa 52097) | MIC (P. aeruginosa 60357) | MIC (P. aeruginosa CMCC10104) | MIC (S. flexneri ATCC12022) | MIC (S. flexneri CMCC51571) | MIC (S. typhimurium CICC21483) | MIC [1] | GM: Geometric mean of the MICs across the 29 bacterial strains [2] | bacteria killed (mortality) (E. coli ATCC25922 [6]) | MIC (C. perfringens ATCC13124) | MIC (MDR A. baumannii 1) | MIC (MDR K. pneumoniae 2) | MIC (MDR K. pneumoniae 3) | MIC (MDR K. pneumoniae 4) | killing in the middle layer of the biofilm (VRSA 52 biofilms) [%] | MIC (S. aureus ATCC29213) | MIC (E. faecalis ATCC29212) | MIC (K. pneumoniae 9883) | further results
1 | CC[C@H](C)[C@H](NC(=O)CNC(=O)[C@@H](N)CSC1CC(=O)N(CC2CCC(C(=O)N(C)[C@H](CC(C)C)C(=O)N[C@H]3C(=O)N[C@@H](CC(N)=O)C(=O)N[C@H]4C(=O)N[C@H]5C(=O)N[C@H](C(=O)N[C@H](C(=O)O)c6cc(O)cc(O)c6-c6cc5ccc6O)[C@H](O)c5ccc(c(Cl)c5)Oc5cc4cc(c5O[C@@H]4O[C@H](CO)[C@@H](O)[C@H](O)[C@H]4O[C@H]4C[C@](C)(N)[C@H](O)[C@H](C)O4)Oc4ccc(cc4Cl)[C@H]3O)CC2)C1=O)C(=O)NCC(=O)N[C@@H](CCCCN)C(=O)N[C@@H](Cc1ccccc1)C(=O)N[C@@H](CC(C)C)C(=O)N[C@@H](CCCCN)C(=O)N[C@@H](CCCCN)C(=O)N[C@@H](C)C(=O)N[C@@H](CCCCN)C(=O)N[C@@H](CCCCN)C(=O)N[C@@H](Cc1ccccc1)C(=O)NCC(=O)N[C@@H](CCCCN)C(=O)N[C@@H](C)C(=O)N[C@@H](Cc1ccccc1)C(=O)N[C@H](C(=O)N[C@@H](CCCCN)C(=O)N[C@H](C(=O)N[C@@H](CC(C)C)C(=O)N[C@@H](CCCCN)C(=O)N[C@@H](CCCCN)C(N)=O)[C@@H](C)CC)C(C)C (stereo partly shown) [Vm‐MSI] | 2.21(9.38) µM | 2.21(9.38) µM | 2.21(9.38) µM | 4.42(18.75) µM | 1.10(4.69) µM | 2.21(9.38) µM | 4.42(18.75) µM | 8.84(37.5) µM | 2.60(11.03) µM | over 80% | 2.21(9.38) µM | 1.10(4.69) µM | 4.42(18.75) µM | 2.21(9.38) µM | 4.42(18.75) µM | 60 |  |  |  | biofilm formation inhibited [3]: 80%; biofilm formation inhibited [4]: 60%; biofilm formation inhibited [5]: 50%; biofilm formation inhibited (VRSA 52 biofilm): 60%; hemolysis (human erythrocytes): 10%; MIC (E. faecalis 2; E. faecalis 2, MH broth, 37 °C, 18 h, OD600): 4.42(18.75) µM; MIC (E. coli CMCC44102; E. coli CMCC44102, MH broth, 37 °C, 18 h, OD600): 2.21(9.38) µM; MIC (MDR P. aeruginosa 5; MDR P. aeruginosa 5, MH broth, 37 °C, 18 h, OD600): 2.21(9.38) µM; killing in the bottom layer of the biofilm (VRSA 52 biofilms): 50%; killing in the surface layer of the biofilm (dead cells) (VRSA 52 biofilms): 95%; killing at the bottom of the biofilm [7]: more than 75%
2 | O=C(O)c1cn(C2CC2)c2cc(N3CCNCC3)c(F)cc2c1=O [ciprofloxacin] |  |  |  |  |  |  |  |  |  |  |  |  |  |  |  |  |  |  |  | change of MIC over 20 generations (E. coli ATCC25922 [8]): 64 fold
3 | GIGKFLKKAKKFGKAFVKILKK-NH2 [MSI‐78] | 7.57(18.75) µM | 3.79(9.38) µM | 3.79(9.38) µM | 7.57(18.75) µM | 3.79(9.38) µM | 3.79(9.38) µM | 7.57(18.75) µM | 7.57(18.75) µM | 7.67(18.99) µM | 58% | 7.57(18.75) µM | 3.79(9.38) µM | 7.57(18.75) µM | 3.79(9.38) µM | 7.57(18.75) µM | 25 | 15.14(37.5) µM | 30.28(75) µM | 15.14(37.5) µM | MIC (VRSA 11): 15.14(37.5) µM; MIC (E. faecalis 2; 2, 18 h): 15.14(37.5) µM; MIC (E. coli CMCC44102; CMCC44102, 18 h): 15.14(37.5) µM; MIC (MDR P. aeruginosa 5; MDR 5, 18 h): 1.89(4.69) µM
4 | ILRWPWWPWRRK-NH2 [Omiganan] |  |  |  |  |  |  |  |  |  |  |  |  |  |  |  |  | 18.75(10.54) µg mL^−1 | 75(42.15) µg mL^−1 | >100(56.21) µg mL^−1 | GM: geometric mean of MIC from tested bacterial strains (13 bacterial strains): 36.00 µg/mL; MIC (S. aureus CMCC26003): 2.34(1.32) µg mL^−1; MIC (MRSA ATCC43300): 37.5(21.08) µg mL^−1; MIC (S. aureus 15772): 18.75(10.54) µg mL^−1; MIC (S. aureus 15192): 18.75(10.54) µg mL^−1; MIC (VRSA 52): 9.38(5.27) µg mL^−1; MIC (E. coli ATCC25922 [9]): 18.75(10.54) µg mL^−1; MIC (A. baumannii ATCC19606): 75(42.15) µg mL^−1; MIC (P. aeruginosa ATCC27853): 18.75(10.54) µg mL^−1; MIC (S. typhimurium ATCC14028): 37.5(21.08) µg mL^−1
